In one test the target is T1, XylA (Escherichia coli, UniProt P00944).
T1 construct: full length, N-terminal His tag, expressed in E. coli BL21(DE3)pLysS
T1 sequence (P00944 1-440): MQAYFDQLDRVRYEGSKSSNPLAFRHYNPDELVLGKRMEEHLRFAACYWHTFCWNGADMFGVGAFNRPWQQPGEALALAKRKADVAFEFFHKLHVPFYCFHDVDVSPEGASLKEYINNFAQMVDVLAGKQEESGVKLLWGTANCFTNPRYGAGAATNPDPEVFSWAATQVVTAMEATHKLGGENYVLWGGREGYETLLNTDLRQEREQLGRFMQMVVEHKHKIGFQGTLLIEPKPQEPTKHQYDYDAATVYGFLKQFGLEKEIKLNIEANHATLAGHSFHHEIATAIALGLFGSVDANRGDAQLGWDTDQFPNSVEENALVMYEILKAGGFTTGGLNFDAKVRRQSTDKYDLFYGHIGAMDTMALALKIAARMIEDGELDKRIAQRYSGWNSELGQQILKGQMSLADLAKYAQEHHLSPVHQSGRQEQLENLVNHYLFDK
As to the kind of experiment: HPLC-RI substrate conversion, overnight. Type of test: biochemical. The note with it: 30 °C, 50 mM HEPES pH 7.4, 10 mM MgCl2, 5 mM MgATP.

In test [1] the target is T2, T18 xylose isomerase (XI) (Thraustochytrium sp. ONC-T18, UniProt A0A385ZBK6).
T2 construct: gene xylA
T2 sequence (A0A385ZBK6 1-439): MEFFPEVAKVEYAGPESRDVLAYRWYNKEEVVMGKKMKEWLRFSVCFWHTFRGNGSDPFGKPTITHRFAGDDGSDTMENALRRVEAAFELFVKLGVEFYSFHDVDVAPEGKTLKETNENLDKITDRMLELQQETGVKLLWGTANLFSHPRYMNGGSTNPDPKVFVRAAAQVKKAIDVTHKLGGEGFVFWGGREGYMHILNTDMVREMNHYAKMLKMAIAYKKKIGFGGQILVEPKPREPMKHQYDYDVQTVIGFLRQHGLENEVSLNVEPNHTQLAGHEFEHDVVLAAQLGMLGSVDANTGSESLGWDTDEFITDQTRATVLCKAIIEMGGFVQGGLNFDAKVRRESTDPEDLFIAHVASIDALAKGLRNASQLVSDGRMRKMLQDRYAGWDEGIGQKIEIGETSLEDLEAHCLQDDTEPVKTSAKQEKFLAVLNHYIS
Nature of the test: HPLC-RI substrate conversion, overnight. It is filed as biochemical. Conditions: 50 °C, 50 mM HEPES pH 7.4, 10 mM MgCl2, 5 mM MgATP; partly pure fraction.

2 compounds from PMC6139898, “Engineering xylose metabolism in thraustochytrid T18” (Biotechnology for Biofuels, 2018) can be followed below.

SMILES strings stand for the structures.

As to `OC1OC[C@@H](O)[C@H](O)[C@H]1O` (stereo partly shown) [xylose], the “HPLC-RI substrate conversion, overnight” value at XylA was “Both XylA and T18 xylose isomerase showed increased activity on both sugars”; in test [1], “Both XylA and T18 xylose isomerase showed increased activity on both sugars”.
`O=C(CO)[C@@H](O)[C@H](O)CO` [xylulose]: the “HPLC-RI substrate conversion, overnight” value was “Both XylA and T18 xylose isomerase showed increased activity on both sugars” at XylA; “Both XylA and T18 xylose isomerase showed increased activity on both sugars” in test [1].
